Laboratory results reported in publication PMC5831858, “Pharmacological characterisation of CR6086, a potent prostaglandin E2 receptor 4 antagonist, as a new potential disease-modifying anti-rheumatic drug” (Arthritis Research & Therapy, 2018).
Marks after values point to notes of the source that are not given here.

Tests used:
[1] = biological target: IP (PGI2) (Homo sapiens, UniProt P43119); test: Eicosanoid receptor IP binding; settings: [^3H]iloprost, HEK-293 cells, read-out: CR6086 Activity at 10µM
[2] = biological target: NK3 (Homo sapiens, UniProt P29371); test: Neurokinin receptor NK3 binding; settings: [^3H]SR 142801, Human recombinant CHO cells, read-out: CR6086 Activity at 10µM
[3] = biological target: Y1 (Homo sapiens, UniProt P25929); test: Neuropeptide Y receptor Y1 binding; settings: [^125I]peptide YY, SK-N-MC cells (endogenous), read-out: CR6086 Activity at 10µM
Sequence of Y1 (P25929 whole entry): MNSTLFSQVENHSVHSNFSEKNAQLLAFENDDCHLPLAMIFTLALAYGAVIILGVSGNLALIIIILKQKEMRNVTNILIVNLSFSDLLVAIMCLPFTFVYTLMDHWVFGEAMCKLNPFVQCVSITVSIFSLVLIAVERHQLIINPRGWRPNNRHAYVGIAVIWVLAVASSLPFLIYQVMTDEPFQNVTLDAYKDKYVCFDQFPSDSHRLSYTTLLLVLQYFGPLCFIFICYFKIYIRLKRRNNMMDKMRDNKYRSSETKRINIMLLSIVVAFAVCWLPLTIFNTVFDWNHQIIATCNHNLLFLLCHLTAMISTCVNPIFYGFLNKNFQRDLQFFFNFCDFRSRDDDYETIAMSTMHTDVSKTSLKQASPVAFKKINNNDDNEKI

[4] = biological target: TP (TXA2/PGH2) (Homo sapiens, UniProt P21731); test: Eicosanoid receptor TP binding; settings: [^3H]SQ 29548, HEK-293 cells, read-out: CR6086 Activity at 10µM
Sequence of TP (TXA2/PGH2) (P21731 whole entry): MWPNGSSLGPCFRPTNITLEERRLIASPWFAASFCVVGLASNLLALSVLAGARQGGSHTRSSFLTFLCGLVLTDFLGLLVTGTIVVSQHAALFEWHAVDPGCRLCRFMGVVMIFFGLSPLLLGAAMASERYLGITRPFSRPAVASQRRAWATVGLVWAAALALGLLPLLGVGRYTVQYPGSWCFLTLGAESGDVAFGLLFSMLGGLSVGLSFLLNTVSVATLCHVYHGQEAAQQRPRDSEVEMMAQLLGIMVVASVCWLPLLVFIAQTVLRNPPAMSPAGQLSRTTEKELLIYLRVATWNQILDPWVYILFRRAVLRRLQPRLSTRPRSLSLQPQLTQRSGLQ

[5] = biological target: T1, COX-2 (Homo sapiens, UniProt P35354); test: Cyclooxygenase COX-2 enzymatic activity; type: biochemical; settings: Sf9 cells, read-out: CR6086 Activity at 10µM
T1 construct: host or cells: Sf9 cells

[6] = biological target: 5-HT1B (Rattus norvegicus, UniProt P28564); test: Serotonin receptor 5-HT1B binding; settings: [^125I]CYP (+30µM isoproterenol), Rat cerebral cortex, read-out: CR6086 Activity at 10µM
Sequence of 5-HT1B (P28564 whole entry): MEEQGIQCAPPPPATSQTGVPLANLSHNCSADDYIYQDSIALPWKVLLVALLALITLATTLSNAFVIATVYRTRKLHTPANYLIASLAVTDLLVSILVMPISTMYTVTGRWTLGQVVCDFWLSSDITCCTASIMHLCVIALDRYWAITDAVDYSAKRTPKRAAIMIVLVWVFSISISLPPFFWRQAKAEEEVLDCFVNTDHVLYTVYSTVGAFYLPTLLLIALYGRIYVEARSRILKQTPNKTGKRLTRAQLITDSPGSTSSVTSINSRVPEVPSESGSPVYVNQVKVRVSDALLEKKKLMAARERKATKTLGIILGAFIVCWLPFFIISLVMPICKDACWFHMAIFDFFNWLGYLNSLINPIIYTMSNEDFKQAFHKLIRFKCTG

[7] = Plasma protein binding (equilibrium dialysis, [^14C]CR6086); type: in vitro ADME; settings: rat, 0.2–200 μM, read-out: unbound fraction (fu)
Protocol: CR6086 concentrations in rat plasma were determined by high-performance liquid chromatography (Agilent 1200 series; Agilent Technologies, Santa Clara, CA, USA) coupled with a triple-quadrupole mass spectrometer (API 4000 QTRAP; SCIEX, Concord, ON, Canada). A ZORBAX SB-C18 2.0 × 50-mm, 3.5-μm column (Agilent Technologies) in isocratic conditions was used with mobile phase 0.1% formic acid in water/acetonitrile (68:32 vol/vol). The method was linear within the dynamic range 1.0–10,000 ng/ml (lower to upper limit of quantification). CR6086 plasma protein binding was determined in the 0.2–200 μM concentration range using [^14C]CR6086 and equilibrium dialysis. EP4 receptor occupancy (RO) was calculated on the basis of CR6086 concentrations according to the following formula: RO%=Cave/Cave+Ki×100,

[8] = biological target: 5-HT2C (Homo sapiens, UniProt P28335); test: Serotonin receptor 5-HT2C binding; settings: [^3H]mesulergine, Human recombinant HEK-293 cells, read-out: CR6086 Activity at 10µM
Sequence of 5-HT2C (P28335 33-458): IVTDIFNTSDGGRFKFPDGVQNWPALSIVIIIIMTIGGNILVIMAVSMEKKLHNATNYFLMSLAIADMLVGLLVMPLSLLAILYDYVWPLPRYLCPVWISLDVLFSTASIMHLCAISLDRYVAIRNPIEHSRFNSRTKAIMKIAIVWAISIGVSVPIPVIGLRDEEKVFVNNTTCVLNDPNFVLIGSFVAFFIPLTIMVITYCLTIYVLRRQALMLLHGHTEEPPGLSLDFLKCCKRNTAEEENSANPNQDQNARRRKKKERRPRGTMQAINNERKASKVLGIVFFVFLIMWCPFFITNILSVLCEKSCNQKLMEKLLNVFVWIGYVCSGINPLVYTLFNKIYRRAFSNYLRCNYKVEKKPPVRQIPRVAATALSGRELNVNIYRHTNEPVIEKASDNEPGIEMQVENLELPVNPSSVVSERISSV

[9] = biological target: A2A (Homo sapiens, UniProt P29274); test: Adenosine receptor A2A binding; settings: [^3H]CGS 21680, Human recombinant HEK-293 cells
Sequence of A2A (P29274 whole entry): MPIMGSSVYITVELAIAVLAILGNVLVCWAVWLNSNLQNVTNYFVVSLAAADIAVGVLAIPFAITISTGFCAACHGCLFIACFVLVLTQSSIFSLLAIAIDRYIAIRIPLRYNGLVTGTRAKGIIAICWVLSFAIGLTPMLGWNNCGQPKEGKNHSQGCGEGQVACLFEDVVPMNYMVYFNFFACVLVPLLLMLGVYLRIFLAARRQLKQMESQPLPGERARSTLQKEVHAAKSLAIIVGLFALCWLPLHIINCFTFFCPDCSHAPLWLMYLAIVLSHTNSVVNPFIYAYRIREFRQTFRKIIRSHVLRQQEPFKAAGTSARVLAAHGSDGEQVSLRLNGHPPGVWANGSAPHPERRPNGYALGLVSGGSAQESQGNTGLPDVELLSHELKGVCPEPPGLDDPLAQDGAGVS

[10] = biological target: T2, EP2 (Homo sapiens, UniProt P43116); test: Eicosanoid receptor EP2 binding; settings: [^3H]PGE2, HEK-293 cells, read-out: CR6086 Activity at 10µM
T2 construct: host or cells: HEK-293 cells

[11] = system: arthritic rats (collagen-induced arthritis model); test: Mechanical hyperalgesia (PAM) in CIA rats; type: in vivo, rat; settings: 15 mg/kg, mean ± SEM
Protocol: Male Lewis rats were immunised by intradermal injection at the base of the tail with an emulsion containing 150 μg of bovine collagen type II (bCII) in complete Freund’s adjuvant (CFA) or received an injection with incomplete Freund’s adjuvant (sham group). Three weeks after the first immunisation, animals were boosted with the same procedure. Three days after booster injection, arthritis had developed in all animals but the sham group. Oedema was assessed via plethysmometer (Ugo Basile, Varese, Italy), and the animals were then randomised to treatment groups. Oedema measurement was performed again after 7 and 14 days of treatment. Animals were blindly scored by two different investigators for clinical signs of arthritis (redness, swelling, pain of hind limb joints) as follows: 0 = normal; 1 = mild but definite redness and swelling of the ankle or wrist or individual digits, regardless of the number of affected digits; 2 = moderate redness and swelling of ankle or wrist; 3 = severe redness and swelling of the entire paw including digits; and 4 = maximally inflamed limb with involvement of multiple joints. The mean of the scores assigned by the investigators was calculated.
In the comparative experiment vs rofecoxib, mechanical hyperalgesia was assessed at the end of treatment by using a digital pressure application measurement (PAM) device (Ugo Basile). Increasing pressure was applied to the lateral side of the knee until the animal attempted to escape or vocalised. The force required to elicit this response was measured in grams (gram-force). An optimal stimulus increase rate of 100 g/second was used, and mechanical thresholds were reached after approximately 10 seconds. This increase was visualised with a rate meter on the built-in display, so the pressure applied was visually controlled. At the end of the experiment, animals were killed, and their hind paws were explanted and processed for histology.

[12] = biological target: CCR1 (Homo sapiens, UniProt P32246); test: CCR1 receptor binding; settings: [^125I]MIP-1α, Human recombinant HEK-293 cells, read-out: CR6086 Activity at 10µM
Sequence of CCR1 (P32246 whole entry): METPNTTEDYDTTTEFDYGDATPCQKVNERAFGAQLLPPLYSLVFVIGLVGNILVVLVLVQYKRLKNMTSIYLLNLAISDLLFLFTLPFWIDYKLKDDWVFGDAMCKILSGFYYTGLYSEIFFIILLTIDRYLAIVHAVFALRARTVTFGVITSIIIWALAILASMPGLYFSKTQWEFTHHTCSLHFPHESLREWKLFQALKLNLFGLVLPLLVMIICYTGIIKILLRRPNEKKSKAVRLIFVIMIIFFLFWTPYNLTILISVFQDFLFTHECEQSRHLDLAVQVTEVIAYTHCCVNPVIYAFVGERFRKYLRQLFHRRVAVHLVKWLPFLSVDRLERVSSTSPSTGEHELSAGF

[13] = biological target: AR (Homo sapiens, UniProt P10275, T878A); test: Nuclear receptor AR binding; settings: [^3H]methyltrienolone, LNCaP cells, read-out: CR6086 Activity at 10µM
Sequence of AR (P10275 whole entry T878A): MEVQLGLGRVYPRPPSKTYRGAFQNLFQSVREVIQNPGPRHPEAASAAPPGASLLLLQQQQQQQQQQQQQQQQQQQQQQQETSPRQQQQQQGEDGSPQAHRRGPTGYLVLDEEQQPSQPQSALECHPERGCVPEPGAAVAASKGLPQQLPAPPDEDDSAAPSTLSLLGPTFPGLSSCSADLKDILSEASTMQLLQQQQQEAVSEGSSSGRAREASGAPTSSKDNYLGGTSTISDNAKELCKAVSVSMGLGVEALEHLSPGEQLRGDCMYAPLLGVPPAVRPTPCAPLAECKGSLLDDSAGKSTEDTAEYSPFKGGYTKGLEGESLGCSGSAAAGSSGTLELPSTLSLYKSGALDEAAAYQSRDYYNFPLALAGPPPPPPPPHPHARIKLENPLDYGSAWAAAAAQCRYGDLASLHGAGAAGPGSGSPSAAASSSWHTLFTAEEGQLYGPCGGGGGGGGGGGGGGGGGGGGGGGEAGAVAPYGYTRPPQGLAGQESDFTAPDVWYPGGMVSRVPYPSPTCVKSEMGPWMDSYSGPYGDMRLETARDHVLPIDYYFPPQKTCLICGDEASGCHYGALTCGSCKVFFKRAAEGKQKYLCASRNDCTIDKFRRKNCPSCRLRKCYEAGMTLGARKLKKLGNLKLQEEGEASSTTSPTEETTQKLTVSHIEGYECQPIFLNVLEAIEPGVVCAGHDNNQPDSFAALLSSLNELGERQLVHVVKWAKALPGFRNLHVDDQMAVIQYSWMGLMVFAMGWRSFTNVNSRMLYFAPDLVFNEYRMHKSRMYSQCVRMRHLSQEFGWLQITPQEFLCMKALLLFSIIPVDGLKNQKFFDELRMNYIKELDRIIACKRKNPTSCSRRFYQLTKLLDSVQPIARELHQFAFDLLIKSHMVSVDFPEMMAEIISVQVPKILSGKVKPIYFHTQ

[14] = biological target: CXCR2 (IL-8B) (Homo sapiens, UniProt P25025); test: CXCR2 receptor binding; settings: [^125I]IL-8, Human recombinant HEK-293 cells, read-out: CR6086 Activity at 10µM
[15] = biological target: M1 (Homo sapiens, UniProt P11229); test: Muscarinic acetylcholine receptor M1 binding; settings: [^3H]pirenzepine, Human recombinant CHO cells, read-out: CR6086 Activity at 10µM
Sequence of M1 (P11229 whole entry): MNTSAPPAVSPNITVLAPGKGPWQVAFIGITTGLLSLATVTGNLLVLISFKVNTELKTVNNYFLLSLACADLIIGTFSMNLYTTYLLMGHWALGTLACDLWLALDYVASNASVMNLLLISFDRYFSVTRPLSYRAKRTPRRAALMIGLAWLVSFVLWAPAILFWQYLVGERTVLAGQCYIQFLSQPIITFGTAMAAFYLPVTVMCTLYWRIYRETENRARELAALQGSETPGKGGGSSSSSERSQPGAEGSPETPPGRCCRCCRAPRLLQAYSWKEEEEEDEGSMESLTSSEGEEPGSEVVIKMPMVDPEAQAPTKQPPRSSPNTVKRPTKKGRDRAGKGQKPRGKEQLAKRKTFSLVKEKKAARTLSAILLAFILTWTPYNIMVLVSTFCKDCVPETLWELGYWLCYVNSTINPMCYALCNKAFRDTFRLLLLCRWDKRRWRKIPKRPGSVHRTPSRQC

[16] = biological target: 5-HT2A (Homo sapiens, UniProt P28223); test: Serotonin receptor 5-HT2A binding; settings: [^3H]ketanserin, Human recombinant HEK-293 cells, read-out: CR6086 Activity at 10µM
Sequence of 5-HT2A (P28223 whole entry): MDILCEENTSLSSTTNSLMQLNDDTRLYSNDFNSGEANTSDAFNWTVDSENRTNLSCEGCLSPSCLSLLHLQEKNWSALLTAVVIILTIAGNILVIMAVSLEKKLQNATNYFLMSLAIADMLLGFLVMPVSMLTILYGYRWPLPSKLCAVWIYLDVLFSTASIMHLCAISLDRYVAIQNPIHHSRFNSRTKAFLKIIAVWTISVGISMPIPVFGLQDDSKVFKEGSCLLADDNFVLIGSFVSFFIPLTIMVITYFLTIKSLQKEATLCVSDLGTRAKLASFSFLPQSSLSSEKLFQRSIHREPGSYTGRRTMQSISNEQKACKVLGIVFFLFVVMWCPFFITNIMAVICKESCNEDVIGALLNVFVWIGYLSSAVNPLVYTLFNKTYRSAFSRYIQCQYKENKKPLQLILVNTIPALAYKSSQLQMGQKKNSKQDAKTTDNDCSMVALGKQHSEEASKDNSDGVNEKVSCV

[17] = biological target: Dopamine transporter (Homo sapiens, UniProt Q01959); test: Dopamine transporter binding; settings: [^3H]BTCP, Human recombinant CHO cells, read-out: CR6086 Activity at 10µM
[18] = biological target: 5-HT6 (Homo sapiens, UniProt P50406); test: Serotonin receptor 5-HT6 binding; settings: [^3H]LSD, Human recombinant CHO cells, read-out: CR6086 Activity at 10µM
Sequence of 5-HT6 (P50406 whole entry): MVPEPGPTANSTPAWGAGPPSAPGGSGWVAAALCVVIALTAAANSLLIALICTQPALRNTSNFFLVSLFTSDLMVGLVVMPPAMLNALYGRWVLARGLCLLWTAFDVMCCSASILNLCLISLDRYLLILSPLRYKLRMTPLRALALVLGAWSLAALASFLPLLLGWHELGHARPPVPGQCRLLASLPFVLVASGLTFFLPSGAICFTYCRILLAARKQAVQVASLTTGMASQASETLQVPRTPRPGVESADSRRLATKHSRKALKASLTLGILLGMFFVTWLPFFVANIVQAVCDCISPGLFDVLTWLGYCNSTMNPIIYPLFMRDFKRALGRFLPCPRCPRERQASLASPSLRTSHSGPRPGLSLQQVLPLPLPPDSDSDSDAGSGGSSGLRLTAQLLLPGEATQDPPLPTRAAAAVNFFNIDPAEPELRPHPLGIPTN

[19] = biological target: GAL1 (Homo sapiens, UniProt P47211); test: Galanin receptor GAL1 binding; settings: [^125I]galanin, Human recombinant HEK-293 cells, read-out: CR6086 Activity at 10µM
Sequence of GAL1 (P47211 whole entry): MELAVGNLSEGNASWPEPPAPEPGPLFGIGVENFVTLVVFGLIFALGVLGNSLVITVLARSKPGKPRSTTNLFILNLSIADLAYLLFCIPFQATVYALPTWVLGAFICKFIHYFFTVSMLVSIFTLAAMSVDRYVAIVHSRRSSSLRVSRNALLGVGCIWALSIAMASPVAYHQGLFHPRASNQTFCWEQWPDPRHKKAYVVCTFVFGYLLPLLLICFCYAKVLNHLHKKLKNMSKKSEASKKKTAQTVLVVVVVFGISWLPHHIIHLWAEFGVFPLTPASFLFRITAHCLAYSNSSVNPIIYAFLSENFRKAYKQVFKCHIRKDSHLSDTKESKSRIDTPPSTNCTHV

Work on `O=C([O-])c1ccc(C2(NC(=O)[C@H]3CC4(CCN3Cc3ccc(C(F)(F)F)cc3)CC4)CC2)cc1.[Na+]` [CR6086, Sodium (R)-4-(1-(6-(4-(trifluoromethyl)benzyl)-6-azaspiro[2.5]octane-5-carboxamido)cyclopropyl)benzoate] yielded an inhibition at 10 µM [1] of under 20%, an inhibition at 10 µM [2] of under 20% and an inhibition at 10 µM [3] of under 20%. It also gave an inhibition at 10 µM [4] of under 20%, an inhibition at 10 µM [5] of under 20% and an inhibition at 10 µM [6] of under 20%. The fraction unbound [7] was 0.0484, the inhibition at 10 µM [8] was under 20% and the “CR6086 Activity at 10µM” value [9] was “IN (IN = < 20% displacement or inhibition (all tables))”. For the same molecule, the inhibition at 10 µM [10] was under 20%, the “Mechanical hyperalgesia, Day 0” value ([11]; Day 0) was 850.45 ± 59.57^a gram-force and the “Mechanical hyperalgesia, Day 7” value ([11]; Day 7) was 846.33 ± 43.60^b,c gram-force. For the same molecule, the “Mechanical hyperalgesia, Day 14” value ([11]; Day 14) was 1023.09 ± 53.97^d gram-force, the inhibition at 10 µM [12] was under 20% and the inhibition at 10 µM [13] was under 20%. For the same molecule, the inhibition at 10 µM [14] was under 20%, the inhibition at 10 µM [15] was under 20% and the inhibition at 10 µM [16] was under 20%. For the same molecule, the inhibition at 10 µM [17] was under 20%, the inhibition at 10 µM [18] was under 20% and the inhibition at 10 µM [19] was under 20%.
